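How tested: cells in 96-well plates exposed to compound for 48 hours at five concentrations. At the GI50, growth is halved. TGI: total growth inhibition.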
How the values were obtained:
Test in all cases: NCI-60 cell line screen, 48 h
[1] = system: SK-OV-3 ovarian
[2] = system: RPMI-8226 leukemia
[3] = system: SK-MEL-28 melanoma
[4] = system: NCI-H522 lung
[5] = system: OVCAR-5 ovarian
[6] = system: CAKI-1 renal
[7] = system: TK-10 renal
[8] = system: HOP-62 NSCLC
[9] = system: ACHN renal
[10] = system: HL-60(TB) leukemia
[11] = system: NCI/ADR-RES ovarian
[12] = system: LOX IMVI melanoma
[13] = system: HCT-116 colon
[14] = system: A549 NSCLC
[15] = system: T-47D breast
[16] = system: SF-268 CNS
[17] = system: HT29 colon
[18] = system: A498 renal
[19] = system: SNB-19 CNS
[20] = system: SW-620 colon
[21] = system: MCF7 breast
[22] = system: SK-MEL-5 melanoma
[23] = system: MOLT-4 leukemia
[24] = system: KM12 colon
[25] = system: UACC-257 melanoma
[26] = system: NCI-H460 lung
[27] = system: UACC-62 melanoma
[28] = system: HCT-15 colon
[29] = system: OVCAR-3 ovarian
[30] = system: SF-539 CNS
[31] = system: SK-MEL-2 melanoma
[32] = system: MDA-MB-435
[33] = system: HOP-92 NSCLC
[34] = system: SR leukemia
[35] = system: IGROV1 ovarian
[36] = system: HCC-2998 colon
[37] = system: BT-549 breast
[38] = system: K-562 leukemia
[39] = system: UO-31 renal
[40] = system: MALME-3M melanoma
[41] = system: SF-295 CNS
[42] = system: CCRF-CEM leukemia
[43] = system: COLO 205 colon
[44] = system: 786-0 renal
[45] = system: MDA-MB-231 breast
[46] = system: DU-145 prostate
[47] = system: NCI-H23 lung
[48] = system: SNB-75 CNS
[49] = system: HS 578T breast
[50] = system: PC-3 prostate
[51] = system: NCI-H226 lung
[52] = system: U251 CNS
[53] = system: OVCAR-8 ovarian
[54] = system: OVCAR-4 ovarian
[55] = system: EKVX NSCLC
[56] = system: M14 melanoma
[57] = system: SN12C renal

`OCC1OC(n2cnc3cc(Cl)c(Cl)cc32)C(O)C1O` (stereo not drawn) was tested, and the GI50 [1] was 37.9 µM, the TGI [1] was > 100 µM and the GI50 [2] was 30 µM. The TGI [2] was > 72.5 µM, the GI50 [3] was 29.3 µM and the TGI [3] was > 100 µM. For the same molecule, the GI50 [4] was 16.3 µM, the TGI [4] was 54.4 µM and the GI50 [5] was 8.01 µM. The TGI [5] was 36.5 µM, the GI50 [6] was 14.2 µM and the TGI [6] was 47.8 µM. The GI50 [7] was 29.3 µM, the TGI [7] was > 86.4 µM and the GI50 [8] was 9.13 µM. The TGI [8] was 35.4 µM, the GI50 [9] was 12.7 µM and the TGI [9] was 34.6 µM. The GI50 [10] was 20 µM, the TGI [10] was > 100 µM and the GI50 [11] was 18.8 µM. The TGI [11] was 56.6 µM, the GI50 [12] was 12.1 µM and the TGI [12] was 29 µM. For the same molecule, the GI50 [13] was 18 µM, the TGI [13] was 44.2 µM and the GI50 [14] was 18.8 µM. The TGI [14] was > 72.4 µM, the GI50 [15] was 26.1 µM and the TGI [15] was > 71.9 µM. For the same molecule, the GI50 [16] was 30.7 µM, the TGI [16] was > 87.9 µM and the GI50 [17] was 33.6 µM. For the same molecule, the TGI [17] was > 100 µM, the GI50 [18] was > 47.3 µM and the TGI [18] was > 67.7 µM. The GI50 [19] was 25.3 µM, the TGI [19] was > 100 µM and the GI50 [20] was 30.3 µM. For the same molecule, the TGI [20] was > 76.7 µM, the GI50 [21] was 21.5 µM and the TGI [21] was 75.9 µM. The GI50 [22] was 18.5 µM, the TGI [22] was 37.6 µM and the GI50 [23] was 3.85 µM. The TGI [23] was > 41.3 µM, the GI50 [24] was 28.3 µM and the TGI [24] was > 100 µM. It also gave a GI50 [25] of 18.7 µM, a TGI [25] of 40.7 µM and a GI50 [26] of 30 µM. For the same molecule, the TGI [26] was > 100 µM, the GI50 [27] was 12.2 µM and the TGI [27] was 26.6 µM. The GI50 [28] was 14.8 µM, the TGI [28] was 37.5 µM and the GI50 [29] was 22.7 µM. It also gave a TGI [29] of 72.3 µM, a GI50 [30] of 19.9 µM and a TGI [30] of 44.7 µM. It also gave a GI50 [31] of 14.3 µM, a TGI [31] of 35.9 µM and a GI50 [32] of 24 µM. The TGI [32] was 82.6 µM, the GI50 [33] was 35.2 µM and the TGI [33] was 99 µM. It also gave a GI50 [34] of 0.648 µM, a GI50 [35] of 12.5 µM and a TGI [35] of 34.4 µM. For the same molecule, the GI50 [36] was 12.7 µM, the TGI [36] was 27 µM and the GI50 [37] was 23 µM. For the same molecule, the TGI [37] was 58.4 µM, the GI50 [38] was 44.8 µM and the TGI [38] was > 100 µM. The GI50 [39] was 15.8 µM, the TGI [39] was 40 µM and the GI50 [40] was 25.5 µM. It also gave a TGI [40] of 67.5 µM, a GI50 [41] of 24.6 µM and a TGI [41] of 85.2 µM. For the same molecule, the GI50 [42] was 38.8 µM, the TGI [42] was > 100 µM and the GI50 [43] was 23.8 µM. For the same molecule, the TGI [43] was > 84.5 µM, the GI50 [44] was 23.6 µM and the TGI [44] was > 68.3 µM. It also gave a GI50 [45] of 21.2 µM, a TGI [45] of 60.1 µM and a GI50 [46] of 17.2 µM. The TGI [46] was > 61.2 µM, the GI50 [47] was 18.8 µM and the TGI [47] was 42.3 µM. The GI50 [48] was 31.2 µM, the TGI [48] was > 74.2 µM and the GI50 [49] was 27 µM. The TGI [49] was > 96.3 µM, the GI50 [50] was 44.5 µM and the TGI [50] was > 100 µM. The GI50 [51] was 8.32 µM, the TGI [51] was 35.3 µM and the GI50 [52] was 13.8 µM. For the same molecule, the TGI [52] was 37.5 µM, the GI50 [53] was 34.7 µM and the TGI [53] was > 72.2 µM. For the same molecule, the GI50 [54] was 62.8 µM, the TGI [54] was > 100 µM and the GI50 [55] was 20.8 µM. For the same molecule, the TGI [55] was 50.8 µM, the GI50 [56] was 9.36 µM and the TGI [56] was 32.5 µM. For the same molecule, the GI50 [57] was 20.6 µM and the TGI [57] was 58.4 µM.

— PubChem BioAssay (NCI)
